US20150038668A1, “Branched Polyesters Based On Citric Acid, Their Preparation And Use” (BASF SE, priority 2010, published 2015)
Converted amounts (≈) assume the structure as drawn.

Test: physchem
Settings: thermodynamic from solid
Method: To increase the solubility of the low-solubility active ingredients, 40 ml of a 15% polymer solution (in DI water) were prepared. […] If the added active ingredient dissolved, further active ingredient was added, to supersaturation, followed by stirring for a further 72 hours. The resulting suspension was filtered through a 0.45 μm membrane filter and the dissolved fraction of active ingredient was determined by means of UV/Vis spectroscopy. The same method was also carried for the active ingredients alone, in order to determine the solubility of the pure active ingredient and to be able to determine the improvement through salt formation. For comparison, the solubility in 0.1 normal HCl as well was ascertained, representing the solubility of the hydrochloride salt of the corresponding base.

SMILES	solubility thermodynamic at 72 h (simulated gastric fluid) [µg/mL]	solubility thermodynamic at 72 h (water) [µg/mL]
NC(N)=Nc1nc(CSCCC(N)=NS(N)(=O)=O)cs1 [Famotidine, famotidine]	32100 (≈ 95100 µM)	1000 (≈ 2960 µM)
CN(C)C(=O)C(CCN1CCC(O)(c2ccc(Cl)cc2)CC1)(c1ccccc1)c1ccccc1 [Loperamide, loperamide]	200 (≈ 419 µM)	70 (≈ 147 µM)
